Measured values from patent publication US8192962B2, “Processes for detecting toxic substances” (Daikin Industries, Ltd., priority 2001, dated 2012).

Tested on: Transport facilitation protein genes
Assay: DNA chip mRNA expression in yeast, transport facilitation protein genes (Table 5)
Type: cell-based, Saccharomyces cerevisiae S288C
Outline: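 Whole-genome yeast DNA chip hybridization (65° C., >12 h) of Cy-labeled cDNA from S288C cells exposed 2 h at 25° C. to a sub-lethal toxicant dose in YPD; value is intensity relative to chemical-free control.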

N#Cc1c(Cl)c(Cl)c(Cl)c(C#N)c1Cl [(9), 2,4,5,6-tetrachloro-1,3-benzenedicarbonitrile]
The level of expressed mRNA in the presence of chemical substance/The level of expressed mRNA in the absence of chemical substance (yeast gene YBL030C): 0.4
The level of expressed mRNA in the presence of chemical substance/The level of expressed mRNA in the absence of chemical substance (yeast gene YBL099W): 0.9
The level of expressed mRNA in the presence of chemical substance/The level of expressed mRNA in the absence of chemical substance (yeast gene YBR052C): 2.3
The level of expressed mRNA in the presence of chemical substance/The level of expressed mRNA in the absence of chemical substance (yeast gene YBR068C): 0.8
The level of expressed mRNA in the presence of chemical substance/The level of expressed mRNA in the absence of chemical substance (yeast gene YBR127C): 0.6
The level of expressed mRNA in the presence of chemical substance/The level of expressed mRNA in the absence of chemical substance (yeast gene YBR132C): 0.8
The level of expressed mRNA in the presence of chemical substance/The level of expressed mRNA in the absence of chemical substance (yeast gene YBR207W): 1.7
The level of expressed mRNA in the presence of chemical substance/The level of expressed mRNA in the absence of chemical substance (yeast gene YBR293W): 5.5
The level of expressed mRNA in the presence of chemical substance/The level of expressed mRNA in the absence of chemical substance (yeast gene YBR294W): 5.2
The level of expressed mRNA in the presence of chemical substance/The level of expressed mRNA in the absence of chemical substance (yeast gene YBR295W): 1.2
The level of expressed mRNA in the presence of chemical substance/The level of expressed mRNA in the absence of chemical substance (yeast gene YBR298C): 0.3
The level of expressed mRNA in the presence of chemical substance/The level of expressed mRNA in the absence of chemical substance (yeast gene YCL025C): 0.3
The level of expressed mRNA in the presence of chemical substance/The level of expressed mRNA in the absence of chemical substance (yeast gene YCL038C): 1.1
The level of expressed mRNA in the presence of chemical substance/The level of expressed mRNA in the absence of chemical substance (yeast gene YCR024C-A): 0.2
The level of expressed mRNA in the presence of chemical substance/The level of expressed mRNA in the absence of chemical substance (yeast gene YCR037C): 0.6
The level of expressed mRNA in the presence of chemical substance/The level of expressed mRNA in the absence of chemical substance (yeast gene YCR098C): 1.4
The level of expressed mRNA in the presence of chemical substance/The level of expressed mRNA in the absence of chemical substance (yeast gene YDL128W): 0.5
The level of expressed mRNA in the presence of chemical substance/The level of expressed mRNA in the absence of chemical substance (yeast gene YDL198C): 1.9
The level of expressed mRNA in the presence of chemical substance/The level of expressed mRNA in the absence of chemical substance (yeast gene YDL210W): 1.2
The level of expressed mRNA in the presence of chemical substance/The level of expressed mRNA in the absence of chemical substance (yeast gene YDL245C): 0.4
The level of expressed mRNA in the presence of chemical substance/The level of expressed mRNA in the absence of chemical substance (yeast gene YDR038C): 1.4
The level of expressed mRNA in the presence of chemical substance/The level of expressed mRNA in the absence of chemical substance (yeast gene YDR039C): 1.8
The level of expressed mRNA in the presence of chemical substance/The level of expressed mRNA in the absence of chemical substance (yeast gene YDR086C): 0.6
The level of expressed mRNA in the presence of chemical substance/The level of expressed mRNA in the absence of chemical substance (yeast gene YDR270W): 2.9
The level of expressed mRNA in the presence of chemical substance/The level of expressed mRNA in the absence of chemical substance (yeast gene YDR298C): 1.0
The level of expressed mRNA in the presence of chemical substance/The level of expressed mRNA in the absence of chemical substance (yeast gene YDR342C): 0.2
The level of expressed mRNA in the presence of chemical substance/The level of expressed mRNA in the absence of chemical substance (yeast gene YDR343C): 0.3
The level of expressed mRNA in the presence of chemical substance/The level of expressed mRNA in the absence of chemical substance (yeast gene YDR345C): 0.2
The level of expressed mRNA in the presence of chemical substance/The level of expressed mRNA in the absence of chemical substance (yeast gene YDR387C): 1.4
The level of expressed mRNA in the presence of chemical substance/The level of expressed mRNA in the absence of chemical substance (yeast gene YDR497C): 0.4
The level of expressed mRNA in the presence of chemical substance/The level of expressed mRNA in the absence of chemical substance (yeast gene YEL027W): 0.9
The level of expressed mRNA in the presence of chemical substance/The level of expressed mRNA in the absence of chemical substance (yeast gene YEL063C): 0.8
The level of expressed mRNA in the presence of chemical substance/The level of expressed mRNA in the absence of chemical substance (yeast gene YEL065W): 0.1
The level of expressed mRNA in the presence of chemical substance/The level of expressed mRNA in the absence of chemical substance (yeast gene YER053C): 1.3
The level of expressed mRNA in the presence of chemical substance/The level of expressed mRNA in the absence of chemical substance (yeast gene YFL011W): 0.3
The level of expressed mRNA in the presence of chemical substance/The level of expressed mRNA in the absence of chemical substance (yeast gene YFL041W): 0.8
The level of expressed mRNA in the presence of chemical substance/The level of expressed mRNA in the absence of chemical substance (yeast gene YFL050C): 0.5
The level of expressed mRNA in the presence of chemical substance/The level of expressed mRNA in the absence of chemical substance (yeast gene YFL054C): 2.0
The level of expressed mRNA in the presence of chemical substance/The level of expressed mRNA in the absence of chemical substance (yeast gene YGL006W): 3.0
The level of expressed mRNA in the presence of chemical substance/The level of expressed mRNA in the absence of chemical substance (yeast gene YGL008C): 0.0
The level of expressed mRNA in the presence of chemical substance/The level of expressed mRNA in the absence of chemical substance (yeast gene YGL104C): 4.6
The level of expressed mRNA in the presence of chemical substance/The level of expressed mRNA in the absence of chemical substance (yeast gene YGL167C): 1.3
The level of expressed mRNA in the presence of chemical substance/The level of expressed mRNA in the absence of chemical substance (yeast gene YGL255W): 0.3
The level of expressed mRNA in the presence of chemical substance/The level of expressed mRNA in the absence of chemical substance (yeast gene YGR055W): 5.0
The level of expressed mRNA in the presence of chemical substance/The level of expressed mRNA in the absence of chemical substance (yeast gene YGR065C): 1.2
The level of expressed mRNA in the presence of chemical substance/The level of expressed mRNA in the absence of chemical substance (yeast gene YGR082W): 0.6
The level of expressed mRNA in the presence of chemical substance/The level of expressed mRNA in the absence of chemical substance (yeast gene YGR096W): 0.8
The level of expressed mRNA in the presence of chemical substance/The level of expressed mRNA in the absence of chemical substance (yeast gene YGR138C): 0.5
The level of expressed mRNA in the presence of chemical substance/The level of expressed mRNA in the absence of chemical substance (yeast gene YGR191W): 0.1
The level of expressed mRNA in the presence of chemical substance/The level of expressed mRNA in the absence of chemical substance (yeast gene YGR197C): 16.7
The level of expressed mRNA in the presence of chemical substance/The level of expressed mRNA in the absence of chemical substance (yeast gene YGR224W): 0.9
